Measured values published in patent US10233186B2, “Inhibitors of activin receptor-like kinase” (BLUEPRINT MEDICINES CORPORATION, priority 2016, dated 2019).
pIC50: −log10 of the molar value.

Legend:
[1] = target: T1, ALK2 R206H (GST-tagged mutant ALK2) (Homo sapiens, UniProt Q04771, R206H); assay: ALK binding assay (LANTHASCREEN TR-FRET competitive binding, displacement of Kinase Tracer 178); conditions: ALK2 R206H, LANTHASCREEN TR-FRET competitive binding; read-out: Binding Assay (IC50)
T1 construct: purchased Carna Bioscience or ThermoFisher 09-148 or PV6232
T1 sequence (Q04771 21-509 R206H): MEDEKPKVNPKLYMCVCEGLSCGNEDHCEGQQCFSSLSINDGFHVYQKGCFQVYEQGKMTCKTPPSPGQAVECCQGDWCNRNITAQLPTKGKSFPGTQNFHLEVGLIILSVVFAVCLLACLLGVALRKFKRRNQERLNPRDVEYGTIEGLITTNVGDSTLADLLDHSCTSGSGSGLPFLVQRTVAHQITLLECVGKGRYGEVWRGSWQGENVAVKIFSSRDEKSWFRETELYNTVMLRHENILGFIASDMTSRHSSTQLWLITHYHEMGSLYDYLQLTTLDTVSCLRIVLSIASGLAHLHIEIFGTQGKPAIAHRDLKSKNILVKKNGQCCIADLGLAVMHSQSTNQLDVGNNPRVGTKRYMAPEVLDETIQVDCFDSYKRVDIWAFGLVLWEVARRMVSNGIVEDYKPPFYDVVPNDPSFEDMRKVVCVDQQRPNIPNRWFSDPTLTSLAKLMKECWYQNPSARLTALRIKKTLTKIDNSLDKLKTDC

human ALK2 R206H = target: T2, human ALK2 R206H (Homo sapiens, UniProt Q04771, R206H); assay: Cell-based ALK2-R206H cell activity assay (Smad1-Ser463/Ser465 phosphorylation by AlphaLISA in HEK293-ALK2-R206H cells); conditions: read-out: Cell Line (Cell Assay IC50)
T2 construct: expressed in transfected cells; host or cells: HEK293 (ATCC CRL1573), lentivirus transduction, blasticidin selection
T2 sequence (Q04771 21-509 R206H): T1 sequence (Q04771 21-509 R206H)
How it was run: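 Stable HEK293 cells expressing C-terminally FLAG-tagged human ALK2 R206H (lentiviral, blasticidin-selected) were treated with compounds in 10-point, 3-fold dilutions from 10 μM or 1 μM top, in duplicate. Smad1 Ser463/Ser465 phosphorylation was read by AlphaLISA.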

Row | Structure (SMILES) | pIC50 [1] | pIC50 (human ALK2 R206H)
1 | CC(C)NC(=O)N1CCN(c2ccnn3cc(-c4ccc(C5(F)CCN(C(C)C)CC5)cc4)cc23)CC1 [Compound 648] | > 8.00 | > 7.00
2 | CCOC(=O)N1CCN(c2ccnn3cc(-c4ccc([C@]5(F)CCCN(C(C)C)C5)cc4)cc23)CC1 [Compound 610] | > 8.00 | > 7.00
3 | CCOC(=O)N1CCN(c2ccnn3cc(-c4ccc([C@@]5(C)CN(C(C)C)CCN5C)cc4)cc23)CC1 [Compound 642] | > 8.00 | > 7.00
4 | CO[C@@]1(c2ccc(-c3cc4c(N5CCN(C(=O)C6CC6)CC5)ccnn4c3)nc2)CCCN(C(C)C)C1 [Compound 625] | > 8.00 | > 7.00
5 | N[C@@H](CO)c1ccc(-c2cc3c(N4CCN(C(=O)OC5COC5)CC4)ccnn3c2)cc1 [Compound 763] | > 8.00 | > 7.00
6 | O=C(C1CC1)N1CCN(c2ccnn3cc(-c4ccc(C56CCN(CC5)CC6)cc4)cc23)CC1 [Compound 482] | > 8.00 | > 7.00
7 | CCNC(=O)N1CCN(c2ccnn3cc(-c4ccc([C@]5(OCC)CCCN(C(C)C)C5)cc4)cc23)CC1 [Compound 673] | > 8.00 | > 7.00
8 | COC1(c2ccc(-c3cc4c(N5CCN(C(=O)OC6COC6)CC5)ccnn4c3)c(F)c2)CCN(C(C)C)CC1 [Compound 737] | > 8.00 | > 7.00
9 | CC(C)(O)C(N)c1ccc(-c2cc3c(N4CCN(C(=O)C5CC5)CC4)ccnn3c2)cc1 (stereo not shown) [Compound 761] | > 8.00 | > 7.00
10 | CC(C)N1CC[C@@](O)(c2ccc(-c3cc4c(N5CCN(C(=O)C6CC6)CC5)ccnn4c3)cc2)C1 [Compound 523] | > 8.00 | > 7.00
11 | COC1(c2ccc(-c3cc4c(N5CCN(C(=O)C6CCC(C#N)CC6)CC5)ccnn4c3)cc2)CN(C(C)C)C1 (stereo not shown) [Compound 729] | > 8.00 | > 7.00
12 | CC(C)N1CCC[C@](O)(c2ccc(-c3cc4c(N5CCN(C(=O)C6CC6)CC5)ccnn4c3)cc2)C1 [Compound 326] | > 8.00 | > 7.00
13 | COCCOC(=O)N1CCN(c2ccnn3cc(-c4ccc(C5CCN(C(C)C)CC5)cc4)cc23)CC1 [Compound 401] | > 8.00 | 6.30 to 7.00
14 | CCN1CC(COc2ccc(-c3cc4c(N5CCN(C(=O)C6CC6)CC5)ccnn4c3)cc2)C1 [Compound 217] | > 8.00 | 6.30 to 7.00
15 | CC(C)N1CCN(C)C(c2ccc(-c3cc4c(N5CCN(C(=O)C6CC6)CC5)ccnn4c3)cc2)C1 (stereo not shown) [Compound 566] | > 8.00 | > 7.00
16 | CC(C)N1CCC(c2ccc(-c3cc4c(N5CCN(C(=O)OC(CO)CO)CC5)ccnn4c3)cc2)CC1 [Compound 836] | > 8.00 | 6.30 to 7.00
17 | Cc1cc(-c2cc3c(N4CCN(C(=O)C5CC5)CC4)ccnn3c2)ccc1[C@H]1CCN(C(C)C)C1 [Compound 504] | > 8.00 | 6.30 to 7.00
18 | CC(C)N1CC[C@@H](c2ccc(-c3cc4c(N5CCN(C(=O)[C@H]6C[C@@H]6C#N)CC5)ccnn4c3)cc2)C1 [Compound 298] | > 8.00 | > 7.00

Row | Structure (SMILES) | pIC50 [1] | pIC50 (human ALK2 R206H)
19 | CCN1CCN(c2ccc(-c3cc4c(N5CCN(C(=O)[C@H]6CC[C@H](C#N)CC6)CC5)ccnn4c3)cc2)CC1 [Compound 429] | > 8.00 | > 7.00
20 | CC(C)N[C@@H](CO)c1ccc(-c2cc3c(N4CCN(C(=O)OC5COC5)CC4)ccnn3c2)cc1 [Compound 792] | > 8.00 | > 7.00
21 | CCC(=O)N1CCN(c2ccnn3cc(-c4ccc(N5CCN(CC)CC5)cc4)cc23)CC1 [Compound 173] | 7.30 to 8.00 | < 6.30
22 | CCOC(=O)N1CCN(c2ccnn3cc(-c4ccc([C@H]5CCN(CC)C5)cc4)cc23)CC1 [Compound 181] | > 8.00 | > 7.00
23 | O=C(C1CC1)N1CCN(c2ccnn3cc(-c4ccc(C5CCCN5)cc4)cc23)CC1 (stereo not shown) [Compound 113] | > 8.00 | > 7.00
24 | O=C(C1CC1)N1CCN(c2ccnn3cc(-c4ccc(C5CCN(C6COC6)CC5)cc4)cc23)CC1 [Compound 310] | > 8.00 | 6.30 to 7.00
25 | CC(C)N1CC(O)(c2ccc(-c3cc4c(N5CCN(C(=O)C6CC6)CC5)ccnn4c3)cc2)C1 [Compound 219] | > 8.00 | > 7.00
26 | O=C(C1CC(F)(F)C1)N1CCN(c2ccnn3cc(-c4ccc(N5CCNCC5)cc4)cc23)CC1 [Compound 296] | > 8.00 | 6.30 to 7.00
27 | CO[C@]1(c2ccc(-c3cc4c(N5CCN(C(=O)NC(C)C)CC5)ccnn4c3)cc2)CCCNC1 [Compound 542] | > 8.00 | > 7.00
28 | CCN1CC[C@@H](c2ccc(-c3cc4c(N5CCN(C(=O)[C@H]6C[C@H]6F)CC5)ccnn4c3)cc2)C1 [Compound 227] | > 8.00 | > 7.00
29 | CCOC(=O)N1CCN(c2ccnn3cc(-c4ccc([C@@]5(OC)CCCNC5)cn4)cc23)CC1 [Compound 778] | > 8.00 | > 7.00
30 | CC(C)(O)C(N)c1ccc(-c2cc3c(N4CCN(C(=O)OC5COC5)CC4)ccnn3c2)cc1 (stereo not shown) [Compound 779] | > 8.00 | > 7.00
31 | CC(C)NC(=O)N1CCN(c2ccnn3cc(-c4ccc([C@H]5CCCN(C(C)C)C5)cn4)cc23)CC1 [Compound 589] | > 8.00 | > 7.00
32 | CCOC1(c2ccc(-c3cc4c(N5CCN(C(=O)OC6COC6)CC5)ccnn4c3)nc2)CCN(C2COC2)CC1 [Compound 875] | > 8.00 | > 7.00
33 | COC[C@@H](C)N1CCC(OC)(c2ccc(-c3cc4c(N5CCN(C(=O)[C@H]6C[C@H](C#N)C6)CC5)ccnn4c3)cc2)CC1 [Compound 746] | > 8.00 | > 7.00
34 | CO[C@@]1(c2ccc(-c3cc4c(N5CCN(C(=O)NC(C)C)CC5)ccnn4c3)cc2)CCCNC1 [Compound 543] | > 8.00 | > 7.00
35 | CCOC(=O)N1CCN(c2ccnn3cc(-c4ccc([C@]5(F)CCCNC5)cc4)cc23)CC1 [Compound 479] | > 8.00 | > 7.00
36 | O=C([C@H]1CC[C@H](O)CC1)N1CCN(c2ccnn3cc(-c4ccc(C5CNCCO5)cc4)cc23)CC1 (stereo partly shown) [Compound 343] | > 8.00 | 6.30 to 7.00

Continued, values first:

Row | pIC50 [1] | pIC50 (human ALK2 R206H) | Structure (SMILES)
37 | > 8.00 | 6.30 to 7.00 | CCN1CC2(C1)CN(c1ccc(-c3cc4c(N5CCN(C(=O)N6CC(C#N)C6)CC5)ccnn4c3)cc1)C2 [Compound 404]
38 | > 8.00 | > 7.00 | CO[C@@]1(c2ccc(-c3cc4c(N5CCN(C(=O)NC(C)C)CC5)ccnn4c3)nc2)CCCN(C(C)C)C1 [Compound 686]
39 | > 8.00 | > 7.00 | CCN1CCCC(c2ccc(-c3cc4c(N5CCN(C(=O)C6CC6)CC5)ccnn4c3)cc2)C1 (stereo not shown) [Compound 202]
40 | > 8.00 | > 7.00 | CCN1CCC(c2ccc(-c3cc4c(N5CCN(C(=O)C6CC(C)(O)C6)CC5)ccnn4c3)cc2)CC1 (stereo not shown) [Compound 383]
41 | > 8.00 | > 7.00 | COC1(c2ccc(-c3cc4c(N5CCN(C(=O)NC(C)C)CC5)ccnn4c3)nc2)CCNC(C)(C)C1 (stereo not shown) [Compound 817]
42 | > 8.00 | > 7.00 | CC(C)N1CC[C@H](c2ccc(-c3cc4c(N5CCN(C(=O)N6CC(C#N)C6)CC5)ccnn4c3)cc2)C1 [Compound 368]
43 | > 8.00 | > 7.00 | CC(C)N1CC(c2ccc(-c3cc4c(N5CCN(C(=O)[C@H]6CC[C@H](C#N)CC6)CC5)ccnn4c3)cc2)C1 [Compound 406]
44 | > 8.00 | > 7.00 | CO[C@@]1(c2ccc(-c3cc4c(N5CCN(C(=O)C6CC6)CC5)ccnn4c3)cc2)CCCNC1 [Compound 490]
45 | > 8.00 | 6.30 to 7.00 | CCN1CCN(c2ccc(-c3cc4c(N5CCN(C(=O)C6CC6)CC5)ccnn4c3)cc2)C[C@H]1C [Compound 264]
46 | > 8.00 | > 7.00 | CCOC(=O)N1CCN(c2ccnn3cc(-c4ccc([C@]5(OC)CCCNC5)cn4)cc23)CC1 [Compound 796]
47 | > 8.00 | > 7.00 | CCN1CCN(c2ccc(-c3cc4c(N5CCN(C(=O)C6CC(C#N)C6)CC5)ccnn4c3)cc2)CC1 (stereo not shown) [Compound 367]
48 | > 8.00 | > 7.00 | CC(C)NC(=O)N1CCN(c2ccnn3cc(-c4ccc(N5CCN(C(C)C)CC5)cc4)cc23)CC1 [Compound 348]
49 | > 8.00 | > 7.00 | CCN1CCN(c2ccc(-c3cc4c(N5CCN(C(=O)C6CC(C)(O)C6)CC5)ccnn4c3)cc2)CC1 (stereo not shown) [Compound 391]
50 | 7.30 to 8.00 | 6.30 to 7.00 | C[C@@H]1CN(c2ccnn3cc(-c4ccc(N5CCNCC5)nc4)cc23)CCN1C(=O)C1CC1 [Compound 170]
51 | > 8.00 | > 7.00 | CC(C)N1CCC(c2ccc(-c3cc4c(N5CCN(C(=O)C6CC6)CC5)ccnn4c3)nc2)CC1 [Compound 266]
52 | > 8.00 | > 7.00 | O=C(C1CC(F)C1)N1CCN(c2ccnn3cc(-c4ccc(N5CCNCC5)cc4)cc23)CC1 (stereo not shown) [Compound 234]
53 | > 8.00 | > 7.00 | CCCNC(=O)N1CCN(c2ccnn3cc(-c4ccc(C5CCN(C(C)C)CC5)cc4)cc23)CC1 [Compound 341]
